Starred links: 1 amine or outer side, 2 acyl side, 3 side chain; linkers in the order of their positions; H or OH if unused. Positions of bridges follow the written chain, without caps; N, C: chain ends. Non-standard residues stand in square brackets, D forms with d. Residues, ends and D or L forms follow the SMILES beside them. Groups on a side chain read outwards from the residue. *: point of attachment. Phe(4-OC2H4NH2,2,3-(CH2)3) = NCCOc1ccc(C[C@H](N)C(=O)O)c2c1CCC2; Trp(7-cPr) = N[C@@H](Cc1c[nH]c2c(C3CC3)cccc12)C(=O)O; NH(CH2CH2O)4CH2CO = O=C(COCCOCCOCCOCCN[*:1])[*:2]; Trp(7-Me) = Cc1cccc2c(C[C@H](N)C(=O)O)c[nH]c12; γGlu = O=C(O)[C@H](CCC(=O)[*:2])N[*:1]; 2Nal = N[C@@H](Cc1ccc2ccccc2c1)C(=O)O; TBMB = c1c(C[*:1])cc(C[*:3])cc1C[*:2]; X1 = O=C(C(N[*:1])C1(S[*:3])CC1)[*:2]; X3 = C(c1nc(C[*:2])nc(C[*:3])n1)[*:1]; Thp(SO2) = NC1(C(=O)O)CCS(=O)(=O)CC1; oXylylene = c1ccc(C[*:2])c(C[*:1])c1; AEF = NCCOc1ccc(C[C@H](N)C(=O)O)cc1; Adipoyl = O=C(CCCCC(=O)[*:2])[*:1]; 3Pal = N[C@@H](Cc1cccnc1)C(=O)O; X5 = COCCOCCOCCOCCOCCOCC(=O)*; Pen = CC(C)(S)[C@H](N)C(=O)O; Thp = NC1(C(=O)O)CCOCC1; AEEA = NCCOCCOCC(=O)O; AEA = NCCOCC(=O)O; Sar = CNCC(=O)O
Target: T1, IL-23α/IL-12β and IL-23R (Homo sapiens, UniProt Q5VWK5)
T1 construct: purchased ACRO ILR-H82F3 (IL-23R); ILB-H52W5 (IL-23α/IL-12β)
T1 sequence (Q5VWK5 24-353 limits assumed): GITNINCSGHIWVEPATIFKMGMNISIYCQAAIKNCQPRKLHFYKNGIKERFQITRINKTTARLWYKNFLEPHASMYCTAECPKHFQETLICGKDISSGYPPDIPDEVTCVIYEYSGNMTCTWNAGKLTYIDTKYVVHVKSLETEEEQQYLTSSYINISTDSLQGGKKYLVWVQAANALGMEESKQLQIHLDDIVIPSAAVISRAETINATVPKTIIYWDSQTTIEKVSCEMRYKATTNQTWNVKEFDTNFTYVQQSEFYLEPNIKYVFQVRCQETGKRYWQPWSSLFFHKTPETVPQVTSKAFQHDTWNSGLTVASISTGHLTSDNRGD
Experiment: IL-23α/IL-12β and IL-23R binding assay (TR-FRET/HTRF)
Conditions: inhibition of the binding of IL-23α/IL-12β to IL-23R, TR-FRET; both proteins 0.3 nM
Protocol: 1. IL-23α/IL-12β and IL-23R binding assay
Compounds were tested for their inhibition on the binding of IL-23α/IL-12β to IL-23R by the TR-FRET method. Solutions of proteins IL-23α/IL-12β (ACRO, Cat# ILB-H52W5) and IL-23R (ACRO, Cat# ILR-H82F3) were prepared in reaction buffer PPI (PerkinElmer, Cat# 61DB10RDF). The final concentrations of IL-23α/IL-12β and IL-23R in the reaction mixture were both 0.3 nM. Positive reference Guselkumab was 3-fold diluted from an initial concentration of 30 nM, with 10 doses. 0.1 µL of the positive reference diluted in the reaction buffer was delivered to a 384-well plate (Grenier, Cat# 784075) by the acoustic liquid delivery technique (Echo 655), and the plate was centrifuged at 1000 rpm for 1 minute. 2.5 µL of IL-23α/IL-12β solution was transferred into the 384-well reaction plate, and the plate was centrifuged at 1000 rpm for 1 minute, and incubated at 25°C for 60 minutes. 2.5 µL of IL-23R solution was transferred into the 384-well reaction plate, and the plate was centrifuged at 1000 rpm for 1 minute. 5 µL of Streptavidin-Tb cryptate and Anti 6HIS-d2 detection mixture was transferred into the 384-well reaction plate, and the plate was centrifuged at 1000 rpm for 1 minute, and incubated at 25°C for 60 minutes. Finally, the HTRF signal (Ratio 665/620 nm) was read with a BMG high-throughput drug screening multifunctional microplate reader. IC50 values were obtained by nonlinear regression curve fitting using GraphPad Prism software.

Point of comparison: `CC(=O)N[C@H]1CSCc2ccccc2CSC[C@@H](C(=O)N[C@@H](Cc2ccc(OCCN)c3c2CCC3)C(=O)N[C@@H](Cc2ccc3ccccc3c2)C(=O)NC2(C(=O)N[C@@H](CCC(=O)O)C(=O)N[C@@H](CC(N)=O)C(=O)N[C@@H](Cc3cccnc3)C(=O)N(C)CC(N)=O)CCS(=O)(=O)CC2)NC(=O)[C@H](CCC(N)=O)NC(=O)[C@H](Cc2c[nH]c3c(C)cccc23)NC(=O)[C@H]([C@@H](C)O)NC(=O)[C@H](Cc2c[nH]cn2)NC1=O` [Compound 31] (Ac-CHT[Trp(7-Me)]QC[Phe(4-OC2H4NH2,2,3-(CH2)3)][2Nal][Thp(SO2)]EN[3Pal][Sar]-NH2; linker 1-6 via oXylylene), IC50 0.258 nM. Against it:
- C[C@@H](O)[C@@H]1NC(=O)[C@H](Cc2c[nH]cn2)NC(=O)[C@@H](NC(=O)COCCOCCNC(=O)COCCOCCNC(=O)CC[C@H](NC(=O)CCCCC(=O)O)C(=O)O)C(C)(C)SSC(C)(C)[C@@H](C(=O)N[C@@H](Cc2ccc(OCCN)c3c2CCC3)C(=O)N[C@@H](Cc2ccc3ccccc3c2)C(=O)NC2(C(=O)N[C@@H](CCC(=O)O)C(=O)N[C@@H](CC(N)=O)C(=O)N[C@@H](Cc3cccnc3)C(=O)N(C)CC(N)=O)CCS(=O)(=O)CC2)NC(=O)[C@H](CCC(N)=O)NC(=O)[C@H](Cc2c[nH]c3c(C4CC4)cccc23)NC1=O [Compound 48] ({Adipoyl-γGlu-AEEA-AEEA}-[Pen]HT[Trp(7-cPr)]Q[Pen][Phe(4-OC2H4NH2,2,3-(CH2)3)][2Nal][Thp(SO2)]EN[3Pal][Sar]-NH2; disulfide 1-6) — 4.4-fold lower, 0.058 nM
- CC(=O)NC1C(=O)N[C@@H](Cc2c[nH]cn2)C(=O)N[C@@H]([C@@H](C)O)C(=O)N[C@@H](Cc2c[nH]c3c(C4CC4)cccc23)C(=O)N[C@@H](CCC(N)=O)C(=O)NC(C(=O)N[C@@H](Cc2ccc(OCCN)c3c2CCC3)C(=O)N[C@@H](Cc2ccc3ccccc3c2)C(=O)NC2(C(=O)N[C@@H](CCC(=O)O)C(=O)N[C@@H](CC(N)=O)C(=O)N[C@@H](Cc3cccnc3)C(=O)N(C)CC(N)=O)CCS(=O)(=O)CC2)C2(CC2)SSC12CC2 (stereo partly drawn) [Compound 54] (Ac-[X1]HT[Trp(7-cPr)]Q[X1][Phe(4-OC2H4NH2,2,3-(CH2)3)][2Nal][Thp(SO2)]EN[3Pal][Sar]-NH2; disulfide 1-6) — 2.8-fold lower, 0.091 nM
- CC(=O)N[C@H]1CSCc2nc3nc(n2)CSC[C@@H](C(=O)N[C@@H](CC(N)=O)C(=O)N[C@@H](Cc2cccnc2)C(=O)N(C)CC(N)=O)NC(=O)C2(CCS(=O)(=O)CC2)NC(=O)[C@H](Cc2ccc4ccccc4c2)NC(=O)[C@H](Cc2ccc(OCCN)c4c2CCC4)NC(=O)[C@H](CSC3)NC(=O)[C@H](CCC(N)=O)NC(=O)[C@H](Cc2c[nH]c3c(C)cccc23)NC(=O)[C@H]([C@@H](C)O)NC(=O)[C@H](Cc2c[nH]cn2)NC1=O [Compound 33] (Ac-CHT[Trp(7-Me)]QC[Phe(4-OC2H4NH2,2,3-(CH2)3)][2Nal][Thp(SO2)]CN[3Pal][Sar]-NH2; linker 1-6-10 via X3) — 1.5-fold higher, 0.395 nM
- CC(=O)NCCCC[C@@H]1NC(=O)[C@H](Cc2c[nH]c3c(C)cccc23)NC(=O)[C@H]([C@@H](C)O)NC(=O)[C@H](Cc2c[nH]cn2)NC(=O)[C@H]2NC(=O)COCCNC(=O)CC[C@@H](C(=O)N[C@@H](CC(N)=O)C(=O)N[C@@H](Cc3cccnc3)C(=O)N(C)CC(N)=O)NC(=O)C3(CCOCC3)NC(=O)[C@H](Cc3ccc4ccccc4c3)NC(=O)[C@H](Cc3ccc(OCCN)cc3)NC(=O)[C@@H](NC1=O)C(C)(C)SSC2(C)C [Compound 38] ([AEA][Pen]HT[Trp(7-Me)]K(Ac)[Pen][AEF][2Nal][Thp]EN[3Pal][Sar]-NH2; disulfide 2-7 (inferred); lactam N-11 (inferred)) — within 1.5-fold, 0.212 nM
- CC(=O)NCCCC[C@@H]1NC(=O)[C@H](Cc2c[nH]c3c(C)cccc23)NC(=O)[C@H]([C@@H](C)O)NC(=O)[C@H](CC(N)=O)NC(=O)C(NC(C)=O)CCCC[C@@H](C(=O)N[C@@H](Cc2ccc(OCCN)cc2)C(=O)N[C@@H](Cc2ccc3ccccc3c2)C(=O)NC2(C(=O)N[C@@H](CCC(=O)O)C(=O)N[C@@H](CC(N)=O)C(=O)N[C@@H](Cc3cccnc3)C(=O)N(C)CC(N)=O)CCOCC2)NC1=O (single isomer, unassigned) [Compound 44-2] — 1.9-fold lower, 0.134 nM
- COCCOCCOCCOCCOCCOCC(=O)N[C@@H]1C(=O)N[C@@H](Cc2c[nH]cn2)C(=O)N[C@@H]([C@@H](C)O)C(=O)N[C@@H](Cc2c[nH]c3c(C4CC4)cccc23)C(=O)N[C@@H](CCC(N)=O)C(=O)N[C@H](C(=O)N[C@@H](Cc2ccc(OCCN)c3c2CCC3)C(=O)N[C@@H](Cc2ccc3ccccc3c2)C(=O)NC2(C(=O)N[C@@H](CCC(=O)O)C(=O)N[C@@H](CC(N)=O)C(=O)N[C@@H](Cc3cccnc3)C(=O)N(C)CC(N)=O)CCS(=O)(=O)CC2)C(C)(C)SSC1(C)C [Compound 35] (X5-[Pen]HT[Trp(7-cPr)]Q[Pen][Phe(4-OC2H4NH2,2,3-(CH2)3)][2Nal][Thp(SO2)]EN[3Pal][Sar]-NH2; disulfide 1-6) — 4.1-fold lower, 0.063 nM
- Cc1cccc2c(C[C@@H]3NC(=O)[C@H]([C@@H](C)O)NC(=O)[C@H](Cc4c[nH]cn4)NC(=O)C4NC(=O)COCCOCCOCCOCCNC(=O)CC[C@@H](C(=O)N[C@@H](CC(N)=O)C(=O)N[C@@H](Cc5cccnc5)C(=O)N(C)CC(N)=O)NC(=O)C5(CCS(=O)(=O)CC5)NC(=O)[C@H](Cc5ccc6ccccc6c5)NC(=O)[C@H](Cc5ccc(OCCN)cc5)NC(=O)[C@@H](NC(=O)[C@H](CCC(N)=O)NC3=O)C(C)(C)SSC43CC3)c[nH]c12 [Compound 53] ([NH(CH2CH2O)4CH2CO][X1]HT[Trp(7-Me)]Q[Pen][AEF][2Nal][Thp(SO2)]EN[3Pal][Sar]-NH2; disulfide 2-7; lactam N-11) — 4-fold lower, 0.065 nM
- CC(=O)N[C@@H](CCC(=O)NCCOCCOCC(=O)NCCOCCOCC(=O)NCCCC[C@@H]1NC(=O)[C@H](Cc2c[nH]c3c(C4CC4)cccc23)NC(=O)[C@H]([C@@H](C)O)NC(=O)[C@H](Cc2c[nH]cn2)NC(=O)[C@@H](NC(C)=O)C(C)(C)SSC(C)(C)[C@@H](C(=O)N[C@@H](Cc2ccc(OCCN)c3c2CCC3)C(=O)N[C@@H](Cc2ccc3ccccc3c2)C(=O)NC2(C(=O)N[C@@H](CCC(=O)O)C(=O)N[C@@H](CC(N)=O)C(=O)N[C@@H](Cc3cccnc3)C(=O)N(C)CC(N)=O)CCS(=O)(=O)CC2)NC1=O)C(=O)O [Compound 47] (Ac-[Pen]HT[Trp(7-cPr)]K([AEEA-AEEA-γGlu-Ac])[Pen][Phe(4-OC2H4NH2,2,3-(CH2)3)][2Nal][Thp(SO2)]EN[3Pal][Sar]-NH2; disulfide 1-6) — 2.8-fold lower, 0.093 nM
- CC(=O)N[C@H]1CSCc2cc3cc(c2)CSC[C@@H](C(=O)N[C@@H](CC(N)=O)C(=O)N[C@@H](Cc2cccnc2)C(=O)N(C)CC(N)=O)NC(=O)C2(CCS(=O)(=O)CC2)NC(=O)[C@H](Cc2ccc4ccccc4c2)NC(=O)[C@H](Cc2ccc(OCCN)c4c2CCC4)NC(=O)[C@H](CSC3)NC(=O)[C@H](CCC(N)=O)NC(=O)[C@H](Cc2c[nH]c3c(C)cccc23)NC(=O)[C@H]([C@@H](C)O)NC(=O)[C@H](Cc2c[nH]cn2)NC1=O [Compound 19] (Ac-CHT[Trp(7-Me)]QC[Phe(4-OC2H4NH2,2,3-(CH2)3)][2Nal][Thp(SO2)]CN[3Pal][Sar]-NH2; linker 1-6-10 via TBMB) — within 1.5-fold, 0.248 nM
- CC(=O)NCCCC[C@@H]1NC(=O)[C@H](Cc2c[nH]c3c(C)cccc23)NC(=O)[C@H]([C@@H](C)O)NC(=O)[C@H](CC(N)=O)NC(=O)C(NC(C)=O)C2(CC2)SSC(C)(C)[C@@H](C(=O)N[C@@H](Cc2ccc(OCCN)cc2)C(=O)N[C@@H](Cc2ccc3ccccc3c2)C(=O)NC2(C(=O)N[C@@H](CCC(=O)O)C(=O)N[C@@H](CC(N)=O)C(=O)N[C@@H](Cc3cccnc3)C(=O)N(C)CC(N)=O)CCOCC2)NC1=O (stereo partly drawn) [Compound 37] (Ac-[X1]NT[Trp(7-Me)]K(Ac)[Pen][AEF][2Nal][Thp]EN[3Pal][Sar]-NH2; disulfide 1-6 (inferred)) — 5.2-fold lower, 0.05 nM
- CC(=O)N[C@@H](CCC(=O)NCCOCCOCC(=O)NCCOCCOCC(=O)N[C@@H]1C(=O)N[C@@H](Cc2c[nH]cn2)C(=O)N[C@@H]([C@@H](C)O)C(=O)N[C@@H](Cc2c[nH]c3c(C4CC4)cccc23)C(=O)N[C@@H](CCC(N)=O)C(=O)N[C@H](C(=O)N[C@@H](Cc2ccc(OCCN)c3c2CCC3)C(=O)N[C@@H](Cc2ccc3ccccc3c2)C(=O)NC2(C(=O)N[C@@H](CCC(=O)O)C(=O)N[C@@H](CC(N)=O)C(=O)N[C@@H](Cc3cccnc3)C(=O)N(C)CC(N)=O)CCS(=O)(=O)CC2)C(C)(C)SSC1(C)C)C(=O)O [Compound 36] (Ac-[γGlu][AEEA][AEEA][Pen]HT[Trp(7-cPr)]Q[Pen][Phe(4-OC2H4NH2,2,3-(CH2)3)][2Nal][Thp(SO2)]EN[3Pal][Sar]-NH2; disulfide 4-9) — 6.1-fold lower, 0.042 nM

Source: patent publication EP4729529A1, “PREPARATION OF PEPTIDE INHIBITOR OF INTERLEUKIN-23 RECEPTOR AND USE THEREOF” (Xizang Haisco Pharmaceutical Co., Ltd., priority 2023, dated 2024)
